{
  "source": "paper PMC11141866",
  "about": "“Pyrimidine depletion enhances targeted and immune therapy combinations in acute myeloid leukemia” (JCI Insight, 2024)",
  "key": {"[1]": {"system": "MOLM-13", "assay": "MTS proliferation assay, MOLM-13", "assay_type": "cell-based", "conditions": "Homo sapiens, MOLM-13, 96 h, read-out: IC50 (MTS proliferation)", "protocol": "(§1) A total of 10,000–20,000 cells from different AML lines or 50,000–75,000 cells of primary AML blasts were treated in a 96-well plate for 72 hours or 96 hours at 37°C, 5% CO2. CellTiter 96 Aqueous MTS reagent (Promega) was added to cells followed by a 3-hour incubation at 37°C, 5% CO2. The absorbance was measured at 490 nm using DTX 880 plate reader, and the IC50 was calculated using GraphPad Prism."}, "[2]": {"system": "OCI-AML3", "assay": "MTS proliferation assay, OCI-AML3", "assay_type": "cell-based", "conditions": "Homo sapiens, OCI-AML-3, 96 h, read-out: IC50 (MTS proliferation)", "protocol": "as §1"}, "[3]": {"system": "THP1", "assay": "MTS proliferation assay, THP1", "assay_type": "cell-based", "conditions": "Homo sapiens, THP-1, 96 h, read-out: IC50 (MTS proliferation)", "protocol": "as §1"}, "[4]": {"system": "U937", "assay": "MTS proliferation assay, U937", "assay_type": "cell-based", "conditions": "Homo sapiens, U-937, 96 h, read-out: IC50 (MTS proliferation)", "protocol": "as §1"}, "[5]": {"system": "Kasumi", "assay": "MTS proliferation assay, Kasumi", "assay_type": "cell-based", "conditions": "Homo sapiens, 96 h, read-out: IC50 (MTS proliferation)", "protocol": "as §1"}, "[6]": {"system": "primary AML patient samples", "assay": "Flow cytometry viability, primary AML long-term culture", "assay_type": "cell-based, human", "conditions": "500nM", "protocol": "(§2) Cells were thawed in 50% FBS RPMI and then cultured in StemSpan (StemCell Technologies) media supplemented with human FLT3L, SCF, GM-CSF, G-CSF, IL-3, IL-6, TPO, and EPO cytokines for 7 days (LTC).\n(§3) After 72 hours or 7 days of treatment of DHODHi, cells were collected and washed with PBS, blocked with human Fc block (BioLegend), and stained with antibodies for 30 minutes on ice. Antibodies were washed off and cells resuspended in FACS buffer (2% FBS, 2 mM NaN3, Dulbecco’s PBS) for analysis using BD LSRFortessa or Cytek Aurora spectral flow cytometer. Live/dead exclusion was done using LIVE/DEAD Fixable Near-IR (Invitrogen). All antibodies were purchased from BioLegend except CD47, which was purchased from BD Biosciences: CD11b clone M1/70, CD38 clone HIT2, CD14 clone M5E2, CD47 clone B6H12, CD33 clone WM53, CD3 clone UCHT1, CD19 clone HIB19, and CD45 clone HI30.\nSupplemental Figure S.2. […] A).\nFlow cytometry analysis of viable primary AML patient samples (n=10) treated in vitro for seven days\n(long term culture, LTC). […]"}, "[7]": {"system": "primary AML samples", "assay": "Flow cytometry CD38 surface expression, primary AML samples", "assay_type": "cell-based, human", "conditions": "500nM", "protocol": "as §2, §3"}, "[8]": {"system": "primary AML patient samples", "assay": "Flow cytometry CD47 surface expression, primary AML samples", "assay_type": "cell-based, human", "conditions": "500nM", "protocol": "as §2, §3\nSupplemental Figure S.8. DHODHi modulates CD47 surface antigen expression. A) Representative flow cytometry overlay histogram plot for CD47 surface expression in MV4-11 cell line following a 72- […]\nsupplementation (experiment was done five independent times). B) Flow cytometry analysis of CD47 surface expression in primary AML patient samples (n=8-10) treated in vitro for seven days (long term culture, LTC). Data is shown as mean florescent intensity (MFI) of CD47 gated on live CD45+CD3-CD19- cells, error bars indicate mean with 95% confidence interval. C) Representative flow cytometry […]\nmodulation of CD47 post DHODHi treatment.\n(1 picture or pasted object on this page, not shown here)"}, "[9]": {"system": "HL-60 disseminated CDX model", "assay": "HL-60 CDX synergy with decitabine", "assay_type": "in vivo, NCG mice", "conditions": "Decitabine 0.4 mpk IP (4on/10off), HOSU53 10 mpk p.o. qd, or both; flag 0 = censored at day 82", "protocol": "Female 8- to 12-week-old female NCG mice were engrafted with 1 × 10^7 cells via tail vein i.v. injection. At 14 days after engraftment (day 1 of treatment), mice (n = 10/arm) were randomized to receive p.o. qd and i.p. vehicle (p.o. qd 40% HPβCD and 4 on/10 off i.p. PBS), 10 mg/kg HOSU-53, i.p. 0.4 mg/kg decitabine on a 4-day on/10-day off cycle, or their combination till moribundity or end of study day 82."}},
  "note": "Values joined by “and” are separate entries in the source; they are usually repeats but may differ in a detail not shown here. Identical values can stand only once.",
  "data": [
    {"smiles": "Cc1c(-c2ccc(-c3ccccc3F)cc2)nc2ccc(F)cc2c1C(=O)O", "note": "[BRQ, brequinar]", "values": [
      {"measurement": "IC50", "setting": "[1]", "result": 0.378, "unit": "µM"},
      {"measurement": "IC50", "setting": "[2]", "result": 0.483, "unit": "µM"},
      {"measurement": "IC50", "setting": "[3]", "result": 0.899, "unit": "µM"},
      {"measurement": "IC50", "setting": "[4]", "result": 2, "unit": "µM"},
      {"measurement": "IC50", "setting": "[5]", "result": 1.18, "unit": "µM"},
      {"measurement": "% Live (Near-IR negative)", "setting": "[6]; Pt.13, DMSO 72.92", "result": 74.35, "unit": "%"},
      {"measurement": "% Live (Near-IR negative)", "setting": "[6]; Pt.14, DMSO 68.39", "result": 69.22, "unit": "%"},
      {"measurement": "% Live (Near-IR negative)", "setting": "[6]; Pt.15, DMSO 61.7", "result": 34.7, "unit": "%"},
      {"measurement": "% Live (Near-IR negative)", "setting": "[6]; Pt.16, DMSO 45.99", "result": 44.41, "unit": "%"},
      {"measurement": "% Live (Near-IR negative)", "setting": "[6]; Pt.17, DMSO 29.84", "result": 27.99, "unit": "%"},
      {"measurement": "% Live (Near-IR negative)", "setting": "[6]; Pt.18, DMSO 29.72", "result": 24.94, "unit": "%"},
      {"measurement": "% Live (Near-IR negative)", "setting": "[6]; Pt.19, DMSO 75.66", "result": 72.29, "unit": "%"},
      {"measurement": "% Live (Near-IR negative)", "setting": "[6]; Pt.20, DMSO 67.67", "result": 44.18, "unit": "%"},
      {"measurement": "CD38 MFI", "setting": "[7]; Pt.13, DMSO 803.93", "result": 685.5},
      {"measurement": "CD38 MFI", "setting": "[7]; Pt.14, DMSO 15.61", "result": 20.07},
      {"measurement": "CD38 MFI", "setting": "[7]; Pt.15, DMSO 168", "result": 776.17},
      {"measurement": "CD38 MFI", "setting": "[7]; Pt.16, DMSO 274.9", "result": 196.87},
      {"measurement": "CD38 MFI", "setting": "[7]; Pt.17, DMSO 1637.55", "result": 2098.18},
      {"measurement": "CD38 MFI", "setting": "[7]; Pt.18, DMSO 74.26", "result": 85.41},
      {"measurement": "CD38 MFI", "setting": "[7]; Pt.19, DMSO 997.1", "result": 1760},
      {"measurement": "CD38 MFI", "setting": "[7]; Pt.20, DMSO 193.57", "result": 223.42},
      {"measurement": "CD47 MFI", "setting": "[8]; Pt.13, DMSO 1665.27", "result": 1311.31},
      {"measurement": "CD47 MFI", "setting": "[8]; Pt.14, DMSO 585.79", "result": 845.1},
      {"measurement": "CD47 MFI", "setting": "[8]; Pt.15, DMSO 1002.16", "result": 847.29},
      {"measurement": "CD47 MFI", "setting": "[8]; Pt.16, DMSO 1349.33", "result": 1999.15},
      {"measurement": "CD47 MFI", "setting": "[8]; Pt.17, DMSO 334.61", "result": 370.44},
      {"measurement": "CD47 MFI", "setting": "[8]; Pt.18, DMSO 869.17", "result": 1024.38},
      {"measurement": "CD47 MFI", "setting": "[8]; Pt.19, DMSO 364.4", "result": 470.75},
      {"measurement": "CD47 MFI", "setting": "[8]; Pt.20, DMSO 398.54", "result": 499.32}
    ]},
    {"smiles": "Nc1ncn([C@H]2C[C@H](O)[C@@H](CO)O2)c(=O)n1", "note": "[Decitabine, decitabine, reference compound]", "values": [
      {"measurement": "Survival, day of study at event (per animal)", "setting": "[9]", "result": "40 days and 41 days and 43 days and 45 days and 47 days"}
    ]}
  ]
}
